The text below walks through data of ChEMBL document CHEMBL5236556, “Development of Cdc2-like Kinase 2 Inhibitors: Achievements and Future Directions” (J Med Chem, 2021).

Molecules are shown by their SMILES. Activity calls are given as the source filed them. No cut-off for these calls is given here. Some results are limits rather than exact numbers.

Test [1] deals with T1, Dual specificity protein kinase CLK1 (Homo sapiens, UniProt P49759).
For test [2], the target named is T2, Dual specificity protein kinase CLK3 (Homo sapiens, UniProt P49761).
Target sequence in this assay (P49761 whole entry): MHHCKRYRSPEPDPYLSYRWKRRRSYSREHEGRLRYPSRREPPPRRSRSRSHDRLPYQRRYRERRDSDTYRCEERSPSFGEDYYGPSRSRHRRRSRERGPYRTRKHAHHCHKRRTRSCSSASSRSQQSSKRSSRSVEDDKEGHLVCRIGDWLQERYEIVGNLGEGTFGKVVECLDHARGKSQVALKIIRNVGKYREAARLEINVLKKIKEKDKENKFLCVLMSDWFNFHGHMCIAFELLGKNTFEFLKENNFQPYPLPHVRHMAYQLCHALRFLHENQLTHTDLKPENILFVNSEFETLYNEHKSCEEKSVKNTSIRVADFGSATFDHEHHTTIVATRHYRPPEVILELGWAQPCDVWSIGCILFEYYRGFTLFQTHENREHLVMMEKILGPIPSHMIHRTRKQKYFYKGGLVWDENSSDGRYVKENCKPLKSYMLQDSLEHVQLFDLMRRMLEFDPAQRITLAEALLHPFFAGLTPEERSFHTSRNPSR
Test [3] concerns the target T3, Dual specificity protein kinase CLK4 (Homo sapiens, UniProt Q9HAZ1).
The target of test [4] is T4, Dual specificity protein kinase CLK2 (Homo sapiens, UniProt P49760).
Target sequence in this assay (P49760 whole entry): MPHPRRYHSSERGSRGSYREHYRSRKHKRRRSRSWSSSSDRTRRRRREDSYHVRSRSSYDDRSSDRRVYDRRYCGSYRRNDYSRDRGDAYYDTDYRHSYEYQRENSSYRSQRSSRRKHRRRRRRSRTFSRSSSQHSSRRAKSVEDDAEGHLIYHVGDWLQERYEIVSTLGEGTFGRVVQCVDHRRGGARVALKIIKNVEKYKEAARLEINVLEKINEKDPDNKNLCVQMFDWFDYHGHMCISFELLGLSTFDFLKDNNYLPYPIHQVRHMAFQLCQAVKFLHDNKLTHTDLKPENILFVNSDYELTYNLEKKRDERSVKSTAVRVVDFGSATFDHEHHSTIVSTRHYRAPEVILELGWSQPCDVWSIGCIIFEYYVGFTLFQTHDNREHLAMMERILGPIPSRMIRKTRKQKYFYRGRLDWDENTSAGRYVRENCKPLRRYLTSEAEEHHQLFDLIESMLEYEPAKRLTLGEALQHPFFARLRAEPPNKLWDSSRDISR
The target in test [5] is SRSF protein kinase 1 (Homo sapiens) (UniProt Q96SB4). Kind of test: Inhibition of SRSF phosphorylation in human HeLa cells. In kind it is cell-based.
A further test has as its system T-24. Kind of test: Cytotoxicity against T24 cells (unknown origin) assessed as supressed cell growth. To be noted: Homo sapiens. Type of test: functional, cell-based.
The next test concerns MDA-MB-231. Nature of the test: Cytotoxicity against MDA-MB-231 cells (unknown origin) assessed as supressed cell growth. In kind it is functional, cell-based. To be noted: Homo sapiens.
The nature of test [6]: Antifibrotic activity in TGF-beta1 induced primary human lung fibroblast. In kind it is functional, cell-based.
The target in test [7] is T4, Dual specificity protein kinase CLK2. Kind of test: Inhibition of human CLK2 administered orally.
Target sequence in this assay (P49760 whole entry): as above
Test [8] deals with T3, Dual specificity protein kinase CLK4. Kind of test: Inhibition of human CLK4 administered orally.
The target of test [9] is T2, Dual specificity protein kinase CLK3. Nature of the test: Inhibition of human CLK3 administered orally.
Target sequence in this assay (P49761 whole entry): as the sequence (P49761 whole entry) above
The target in test [10] is T1, Dual specificity protein kinase CLK1. Nature of the test: Inhibition of human CLK1 administered orally.
For test [11], the species on record is Homo sapiens. Kind of test: Inhibition of DYRK kinase (unknown origin) at 100 uM.
A further test relates to MCF7. Kind of test: Cytotoxicity against human MCF7 cells. Type of test: functional, cell-based.
The test system of another test is PC-3. Kind of test: Cytotoxicity against human PC-3 cells. In kind it is functional, cell-based.
Test [12] has as its target T4, Dual specificity protein kinase CLK2. Nature of the test: Inhibition of CLK2 (unknown origin).
Target sequence in this assay (P49760 whole entry): as the sequence (P49760 whole entry) above
For test [13], the target named is T1, Dual specificity protein kinase CLK1. Kind of test: Inhibition of CLK1 (unknown origin).
For test [14], the target named is T4, Dual specificity protein kinase CLK2. Nature of the test: Inhibition of human CLK2 at 1 uM.
Target sequence in this assay (P49760 whole entry, looked up): as the sequence (P49760 whole entry) above
For another test, the system named is Cancer cell lines. Nature of the test: Antiproliferative activity against cancer cells (unknown origin). Type of test: functional, cell-based. Particulars: Homo sapiens.
The species named for test [15] is Homo sapiens. Kind of test: Selectivity ratio of IC50 for inhibition of human CLK3 to IC50 for inhibition of human CLK2 by biochemical caliper assay.
The target in test [16] is T4, Dual specificity protein kinase CLK2. Kind of test: Inhibition of human CLK2 measured by DSF assay. (In DSF a fluorescence change marks the thermal transition of the protein.)
Target sequence in this assay (P49760 whole entry, looked up): as the sequence (P49760 whole entry) above
For a further test, the species on record is Mus musculus. Nature of the test: Induction of autophagy in APAP induced liver injury mouse model. Type of test: functional, organism-based.
Test [17] addresses T2, Dual specificity protein kinase CLK3. Kind of test: Inhibition of human CLK3 assessed as residual activity at 3 uM.
Target sequence in this assay (P49761 whole entry, looked up): as the sequence (P49761 whole entry) above
Test [18] relates to Triple-negative breast cancer cell. Kind of test: Antitumour activity expressed in triple negative breast cells (unknown origin) with dysfunctional G1-S checkpoint. In kind it is functional, cell-based. To be noted: Homo sapiens.
The test system of a further test is Lung cancer cell line. Nature of the test: Cytotoxicity against lung cancer cells (unknown origin). To be noted: Homo sapiens. Type of test: functional, cell-based.

T1 sequence (P49759 whole entry): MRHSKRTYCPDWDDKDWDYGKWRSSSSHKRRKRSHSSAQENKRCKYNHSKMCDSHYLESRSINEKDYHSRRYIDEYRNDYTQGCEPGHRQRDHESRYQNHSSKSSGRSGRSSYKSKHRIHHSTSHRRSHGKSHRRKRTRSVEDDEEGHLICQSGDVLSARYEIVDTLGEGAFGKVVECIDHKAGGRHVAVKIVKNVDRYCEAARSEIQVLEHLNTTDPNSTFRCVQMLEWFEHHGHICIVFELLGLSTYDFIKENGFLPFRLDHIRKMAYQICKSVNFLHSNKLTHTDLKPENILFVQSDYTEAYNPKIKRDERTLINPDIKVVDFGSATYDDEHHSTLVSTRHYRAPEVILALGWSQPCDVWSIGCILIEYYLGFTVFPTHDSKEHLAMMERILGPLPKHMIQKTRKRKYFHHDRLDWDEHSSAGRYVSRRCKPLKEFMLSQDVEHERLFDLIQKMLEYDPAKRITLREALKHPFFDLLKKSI
T3 sequence (Q9HAZ1 whole entry): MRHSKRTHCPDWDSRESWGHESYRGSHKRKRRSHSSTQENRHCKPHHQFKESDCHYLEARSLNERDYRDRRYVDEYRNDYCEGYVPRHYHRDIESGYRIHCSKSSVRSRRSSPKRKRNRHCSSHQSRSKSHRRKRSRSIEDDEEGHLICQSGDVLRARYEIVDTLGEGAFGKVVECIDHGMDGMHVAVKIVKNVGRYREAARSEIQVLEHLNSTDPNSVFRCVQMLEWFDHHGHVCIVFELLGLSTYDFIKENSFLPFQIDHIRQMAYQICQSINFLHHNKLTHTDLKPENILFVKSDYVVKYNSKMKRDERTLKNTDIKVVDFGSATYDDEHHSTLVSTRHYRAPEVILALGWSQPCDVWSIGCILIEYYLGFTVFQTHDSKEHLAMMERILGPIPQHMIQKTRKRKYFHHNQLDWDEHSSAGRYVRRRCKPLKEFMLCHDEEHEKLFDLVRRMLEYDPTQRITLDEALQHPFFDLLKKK
SRSF protein kinase 1 (Homo sapiens), sequence (Q96SB4 whole entry): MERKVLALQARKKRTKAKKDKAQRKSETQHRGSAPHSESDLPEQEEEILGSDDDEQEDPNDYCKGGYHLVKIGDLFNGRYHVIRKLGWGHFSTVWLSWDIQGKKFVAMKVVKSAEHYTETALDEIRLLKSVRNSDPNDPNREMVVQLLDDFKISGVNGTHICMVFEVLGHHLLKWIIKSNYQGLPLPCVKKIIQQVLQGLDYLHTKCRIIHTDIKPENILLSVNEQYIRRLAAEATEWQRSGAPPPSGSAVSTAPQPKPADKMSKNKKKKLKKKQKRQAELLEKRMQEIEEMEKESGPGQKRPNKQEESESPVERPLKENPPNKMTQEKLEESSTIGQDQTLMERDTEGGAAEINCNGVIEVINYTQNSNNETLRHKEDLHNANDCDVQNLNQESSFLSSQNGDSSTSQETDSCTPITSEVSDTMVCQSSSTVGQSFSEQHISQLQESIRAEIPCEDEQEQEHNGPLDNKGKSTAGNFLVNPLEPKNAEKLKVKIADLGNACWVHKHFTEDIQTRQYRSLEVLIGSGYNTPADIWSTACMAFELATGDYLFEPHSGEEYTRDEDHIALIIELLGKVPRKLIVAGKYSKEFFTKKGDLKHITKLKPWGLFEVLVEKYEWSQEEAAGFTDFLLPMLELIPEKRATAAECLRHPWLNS

Take `COc1cc(Nc2nccc(-c3cnn4nc(OC)ccc34)n2)cc(C(F)(F)F)c1`: the IC50 in test [1] came out at 13 nM.
With `Cc1ccc(CNc2ncnc3ccc(-c4ccc(CO)o4)cc23)o1`, in test [2], the 50% inhibitory concentration (IC50) is more than 10000 nM.
As for `O=C(O)c1nc2ccccc2c2[nH]c3c(Cl)cccc3c12`, the IC50 in test [1] was 130 nM; in test [3] it was 45 nM; in test [2], more than 100 nM.
Consider `c1csc(CNc2ncnc3ccc(-c4ccc5c(c4)OCO5)cc23)c1`, for which the IC50 in [1] turned out to be 37 nM; in test [4], 680 nM; in test [3] it was 50 nM; in test [2], 470 nM.
Take `CN1CCN(C(=O)C(C)(C)c2ccc(C(=O)Nc3cn4cc(-c5ccncc5)ccc4n3)cc2)CC1`: in test [5], the inhibition result is “Dose-Dependent Effect”.
Take `COc1ccc2sc(C(=O)N(C)Cc3cccc(F)c3)cc2c1`: the outcome with T-24 and with MDA-MB-231 was Active. The IC50 in [1] turned out to be 7 nM; in test [4] it was 19.1 nM; in test [3], 2.3 nM.
The compound `N=C1NC(=O)/C(=C/c2ccc3c(c2)CCO3)S1` showed an IC50 in test [4] of 6800 nM.
Turning to `O=C(Nc1cccnc1)c1c[nH]nc1-c1nc2c(-c3cccc(F)c3)cccc2[nH]1`, the response in test [6] was half-maximal at 18 nM (EC50). Also, inhibition in test [4] was half-maximal at 11 nM (IC50).
In the case of `CNc1nc(NCc2ncccn2)c2c(-c3ccc4ncccc4c3)c[nH]c2n1`, the IC50 worked out at 0.096 nM in test [7], 0.61 nM in [8], 6.5 nM in [9] and 4.8 nM in test [10].
Regarding `CC(C)n1cnc2c(Nc3cc(N)cc(Cl)c3)nc(NC3CCCCC3N)nc21` (stereo not drawn), the IC50 in test [1] was determined as 17 nM; in test [4], 6 nM; in test [3], 25 nM; in [2] it was 1000 nM.
In the case of `O=[N+]([O-])c1ccccc1-n1cc(COc2cccc3cnc(Nc4cccc(Cl)c4)nc23)nn1`, in the test filed under Homo sapiens [11], the inhibition result is “inactive”. Moreover, the IC50 in [1] was 11 nM; with MCF7 it was 4000 nM; in test [4], 27 nM; in [3], 20 nM; in the test on PC-3, 7000 nM; in test [2] it was more than 1000 nM.
In turn, `CN1C(=O)/C(=C/c2ccc3c(c2)OCO3)N=C1N` [LEUCETTAMINE B] had an IC50 in [4] of 720 nM.
As for `COc1c(O)ccc2c(=O)c3c(O)cc4c(c3[nH]c12)C=CC(C)(C)O4`, the values for the IC50 in test [1] and in test [2] were 210 nM and more than 2000 nM, respectively.
Turning to `COc1cccc2c1[nH]c1c3ccncc3cc(C#N)c21`, the values for the IC50 in [12] and in test [13] were 41 nM and 44 nM, respectively.
For the compound `c1cc(-c2ccc3[nH]ncc3c2)ccn1`, in [1], the IC50 was found to be 113 nM. In test [14], the inhibition amounted to 85%.
In the case of `O=C1NCc2ccc3c(-c4cccc(Cl)c4)c[nH]c3c21`, the figures for the half-maximal inhibitory concentration (IC50) in test [1], in test [4] and in [2] were 88 nM, 510 nM and 28 nM, respectively. The outcome with Cancer cell lines was Active.
Regarding `CC(C)(CO)c1ccc(C(=O)Nc2cn3cc(-c4cn[nH]c4)ccc3n2)cn1`, the results for the IC50 in test [1] and in test [4] were 1.1 nM and 2.1 nM, respectively.
As to `Cc1[nH]nc2ccc(-c3cncc(OC[C@@H](N)CC(C)C)c3)cc12`, the Ratio IC50 in the test listed under Homo sapiens [15] amounted to 225.
For `COc1cc(/C=C2\N=C(N)NC2=O)ccc1O` [POLYANDROCARPAMINE A], the 50% inhibitory concentration (IC50) is 470 nM in [1], 640 nM in test [4], 470 nM in test [3] and more than 2000 nM in test [2].
Consider `CCOC(=O)c1c(/C(C#N)=C\N)c2ccc(Cl)c(Cl)c2n1C`, for which the inhibition entry in test [16] was “Active”.
For `O=C1NCc2c(Cl)cc3c(-c4ccccc4)c[nH]c3c21`, the results for the IC50 in test [1], in test [4] and in [2] were 380 nM, 33 nM and 300 nM, respectively.
In turn, `COc1ccc2sc(C(=O)N(C)OC)cc2c1` yielded an inhibition in test [14] of 73%.
Regarding `O=C1NC(Nc2ccccc2)=N/C1=C\c1ccc2c(c1)OCO2`, the IC50 was 64 nM in [3] and more than 10000 nM in test [2].
For the compound `C[C@@H](c1ccc(F)cc1)n1nnc2cnc3ccc(-c4ccc5ocnc5c4)cc3c21`, the result in the test filed under Mus musculus was Active. Further, half-maximal inhibition in test [2] (IC50) was put at 8 nM.
Turning to `Cc1nc2ccc3sc(NC(=O)c4ccc5scnc5c4)nc3c2s1`, the IC50 in [1] was found to be 51 nM; in [4], 68 nM; in test [2], 346 nM.
Turning to `COc1ccc(NC(=O)c2n[nH]c3ccc(-c4cncc(CN5CCCCC5)c4)cc23)cc1`, the half-inhibitory concentration (IC50) in test [4] was 0.822 nM.
For the compound `CNC(=O)c1ccc(Nc2nc(OC3CCCC3)c3c(-c4ccc5nc(C)oc5c4)c[nH]c3n2)c(OC)c1`, the Activity in test [17] came to 60%. The result (in [18]; with Lung cancer cell line) was Active.
For the compound `CC(C)c1cnn2c(NCc3ccc(-c4ccccn4)cc3)nc(N[C@H]3CC[C@H](N)CC3)nc12`, the IC50 came out at 100 nM in test [1], 130 nM in test [4], 89 nM in test [3] and 2.9 nM in test [2].
Consider `CC(C)(C)c1ccc(C(=O)Nc2cn3cc(-c4ccncc4)ccc3n2)cn1`, for which the results for the 50% inhibitory concentration (IC50) in test [1] and in test [4] were 1.1 nM and 2.4 nM, respectively.

For orientation: IC50 means the concentration needed to halve the response being measured. As usually defined, the inhibition is the share of the control response that was lost under treatment. What is called EC50 is the concentration that produces a half-maximal response. Higher therefore signals a need for much substance.
